Measured values: article PMC3914206

What was measured:
Assay in all cases: KiNativ chemical proteomics profiling in HeLa and PC3 cell lysates
Format in all cases: binding
[1] = target: T1, selected panels of kinases in HeLa and PC3 cell lysates (Homo sapiens, UniProt Q96GX5); conditions: 10 uM; proteome HEL; peptide LYAVkVVK; labeling site Lys1
T1 construct: endogenous in cells; host or cells: HeLa and PC3 cell lysates

[2] = target: T2, selected panels of kinases in HeLa and PC3 cell lysates (Homo sapiens, UniProt P45985); conditions: 10 uM, proteome PC3
T2 construct: endogenous in cells; host or cells: HeLa and PC3 cell lysates
T2 sequence (P45985 1-399): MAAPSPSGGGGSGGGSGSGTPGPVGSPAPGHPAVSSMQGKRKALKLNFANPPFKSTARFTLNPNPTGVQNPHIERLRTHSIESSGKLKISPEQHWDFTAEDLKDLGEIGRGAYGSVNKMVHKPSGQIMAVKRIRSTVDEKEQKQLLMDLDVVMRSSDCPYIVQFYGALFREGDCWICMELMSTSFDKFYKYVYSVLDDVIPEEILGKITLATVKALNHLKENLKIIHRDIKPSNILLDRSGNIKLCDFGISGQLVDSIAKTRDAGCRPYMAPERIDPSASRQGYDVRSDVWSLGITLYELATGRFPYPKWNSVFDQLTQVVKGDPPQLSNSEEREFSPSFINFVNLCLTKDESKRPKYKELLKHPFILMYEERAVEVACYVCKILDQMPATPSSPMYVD

[3] = target: T3, selected panels of kinases in HeLa and PC3 cell lysates (Homo sapiens, UniProt Q7KZI7); conditions: 10 uM; proteome PC3; peptide EVAVk[…]; labeling site Lys1
T3 construct: endogenous in cells; host or cells: HeLa and PC3 cell lysates
T3 sequence (Q7KZI7 whole entry): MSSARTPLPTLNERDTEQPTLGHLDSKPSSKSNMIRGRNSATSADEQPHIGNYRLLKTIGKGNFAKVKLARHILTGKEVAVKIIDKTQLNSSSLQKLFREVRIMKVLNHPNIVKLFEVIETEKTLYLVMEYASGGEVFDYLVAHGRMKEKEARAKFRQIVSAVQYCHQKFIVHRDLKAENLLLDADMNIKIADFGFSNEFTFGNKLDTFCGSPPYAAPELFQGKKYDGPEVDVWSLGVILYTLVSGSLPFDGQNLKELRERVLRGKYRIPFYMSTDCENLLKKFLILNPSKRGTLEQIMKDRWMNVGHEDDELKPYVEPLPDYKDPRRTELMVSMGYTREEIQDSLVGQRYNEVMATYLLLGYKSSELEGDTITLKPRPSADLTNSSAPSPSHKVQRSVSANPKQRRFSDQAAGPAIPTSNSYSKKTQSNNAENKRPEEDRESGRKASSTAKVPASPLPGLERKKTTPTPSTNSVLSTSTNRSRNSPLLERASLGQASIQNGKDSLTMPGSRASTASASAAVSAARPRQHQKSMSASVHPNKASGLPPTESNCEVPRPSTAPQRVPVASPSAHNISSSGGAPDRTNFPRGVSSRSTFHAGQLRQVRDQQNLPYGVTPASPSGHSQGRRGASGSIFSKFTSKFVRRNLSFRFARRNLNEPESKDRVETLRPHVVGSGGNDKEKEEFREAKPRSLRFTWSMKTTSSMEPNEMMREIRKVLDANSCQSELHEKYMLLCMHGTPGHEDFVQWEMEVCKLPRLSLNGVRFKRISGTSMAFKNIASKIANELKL

[4] = target: T4, selected panels of kinases in HeLa and PC3 cell lysates (Homo sapiens, UniProt P07948); conditions: 10 uM; proteome HEL; peptide VAVk[…]; labeling site Lys1
T4 construct: endogenous in cells; host or cells: HeLa and PC3 cell lysates
T4 sequence (P07948 whole entry): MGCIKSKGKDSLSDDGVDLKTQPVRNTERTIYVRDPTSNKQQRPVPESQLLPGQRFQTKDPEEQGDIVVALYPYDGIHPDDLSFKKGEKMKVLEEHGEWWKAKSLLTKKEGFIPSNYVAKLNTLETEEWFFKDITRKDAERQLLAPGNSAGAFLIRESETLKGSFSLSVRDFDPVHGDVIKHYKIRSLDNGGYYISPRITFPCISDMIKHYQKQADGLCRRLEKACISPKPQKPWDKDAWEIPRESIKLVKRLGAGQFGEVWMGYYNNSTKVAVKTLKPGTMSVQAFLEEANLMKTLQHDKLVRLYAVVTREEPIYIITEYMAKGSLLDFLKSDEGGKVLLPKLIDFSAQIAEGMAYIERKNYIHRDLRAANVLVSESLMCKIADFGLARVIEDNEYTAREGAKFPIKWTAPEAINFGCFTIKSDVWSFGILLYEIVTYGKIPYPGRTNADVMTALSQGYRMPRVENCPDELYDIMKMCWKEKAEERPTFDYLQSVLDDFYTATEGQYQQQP

[5] = target: T5, selected panels of kinases in HeLa and PC3 cell lysates (Homo sapiens, UniProt P50613); conditions: 10 uM; proteome HEL; peptide DLk[…]; labeling site Lys2
T5 construct: endogenous in cells; host or cells: HeLa and PC3 cell lysates

[6] = target: T6, selected panels of kinases in HeLa and PC3 cell lysates (Homo sapiens, UniProt Q16644); conditions: 10 uM; proteome HEL; peptide […]k[…]; labeling site ATP Loop
T6 construct: endogenous in cells; host or cells: HeLa and PC3 cell lysates

[7] = target: T7, selected panels of kinases in HeLa and PC3 cell lysates (Homo sapiens, UniProt P46734); conditions: 10 uM, peptide DVkPSNVLINK, labeling site Lys2
T7 construct: endogenous in cells; host or cells: HeLa and PC3 cell lysates
T7 sequence (P46734 1-347): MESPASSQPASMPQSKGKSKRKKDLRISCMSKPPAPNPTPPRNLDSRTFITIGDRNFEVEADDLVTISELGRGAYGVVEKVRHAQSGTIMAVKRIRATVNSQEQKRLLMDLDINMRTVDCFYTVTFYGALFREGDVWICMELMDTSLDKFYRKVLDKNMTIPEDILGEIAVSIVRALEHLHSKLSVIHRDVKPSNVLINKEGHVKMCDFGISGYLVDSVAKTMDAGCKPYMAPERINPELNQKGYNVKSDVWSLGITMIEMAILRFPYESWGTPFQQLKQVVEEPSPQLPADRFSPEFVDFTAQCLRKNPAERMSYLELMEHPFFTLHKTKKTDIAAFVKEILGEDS

[8] = target: T8, selected panels of kinases in HeLa and PC3 cell lysates (Homo sapiens, UniProt P52564); conditions: 10 uM
T8 construct: endogenous in cells; host or cells: HeLa and PC3 cell lysates
T8 sequence (P52564 1-334): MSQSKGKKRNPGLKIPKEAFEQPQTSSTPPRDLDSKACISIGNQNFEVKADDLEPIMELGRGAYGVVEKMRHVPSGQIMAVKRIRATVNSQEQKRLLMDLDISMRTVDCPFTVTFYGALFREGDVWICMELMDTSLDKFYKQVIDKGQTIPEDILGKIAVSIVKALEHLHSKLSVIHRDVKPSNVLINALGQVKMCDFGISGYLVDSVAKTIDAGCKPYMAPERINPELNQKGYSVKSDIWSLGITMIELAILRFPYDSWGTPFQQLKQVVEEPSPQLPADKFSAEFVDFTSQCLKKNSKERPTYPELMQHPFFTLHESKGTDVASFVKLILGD

[9] = target: T9, selected panels of kinases in HeLa and PC3 cell lysates (Homo sapiens, UniProt O94921); conditions: 10 uM; PFTAIRE1; peptide LVALkVIR; proteome PC3; labeling site Lys1
T9 construct: endogenous in cells; host or cells: HeLa and PC3 cell lysates
T9 sequence (O94921 whole entry): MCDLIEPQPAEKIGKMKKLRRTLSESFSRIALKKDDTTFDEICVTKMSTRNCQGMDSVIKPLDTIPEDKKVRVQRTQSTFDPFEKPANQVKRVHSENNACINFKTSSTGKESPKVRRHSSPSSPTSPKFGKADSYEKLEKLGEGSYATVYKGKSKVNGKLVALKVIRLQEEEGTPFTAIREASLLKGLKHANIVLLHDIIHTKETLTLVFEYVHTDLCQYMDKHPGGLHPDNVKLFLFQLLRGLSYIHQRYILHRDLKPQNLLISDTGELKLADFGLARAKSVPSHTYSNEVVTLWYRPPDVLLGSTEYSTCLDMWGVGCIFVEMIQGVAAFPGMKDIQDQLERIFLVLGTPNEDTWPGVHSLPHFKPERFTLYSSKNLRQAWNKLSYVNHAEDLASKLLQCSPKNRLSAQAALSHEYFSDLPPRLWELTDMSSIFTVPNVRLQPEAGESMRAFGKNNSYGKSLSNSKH

[10] = target: T10, selected panels of kinases in HeLa and PC3 cell lysates (Homo sapiens, UniProt P53350); conditions: 10 uM; PLK1; peptide DLk[…]; proteome HEL; labeling site Lys2
T10 construct: endogenous in cells; host or cells: HeLa and PC3 cell lysates
T10 sequence (P53350 whole entry): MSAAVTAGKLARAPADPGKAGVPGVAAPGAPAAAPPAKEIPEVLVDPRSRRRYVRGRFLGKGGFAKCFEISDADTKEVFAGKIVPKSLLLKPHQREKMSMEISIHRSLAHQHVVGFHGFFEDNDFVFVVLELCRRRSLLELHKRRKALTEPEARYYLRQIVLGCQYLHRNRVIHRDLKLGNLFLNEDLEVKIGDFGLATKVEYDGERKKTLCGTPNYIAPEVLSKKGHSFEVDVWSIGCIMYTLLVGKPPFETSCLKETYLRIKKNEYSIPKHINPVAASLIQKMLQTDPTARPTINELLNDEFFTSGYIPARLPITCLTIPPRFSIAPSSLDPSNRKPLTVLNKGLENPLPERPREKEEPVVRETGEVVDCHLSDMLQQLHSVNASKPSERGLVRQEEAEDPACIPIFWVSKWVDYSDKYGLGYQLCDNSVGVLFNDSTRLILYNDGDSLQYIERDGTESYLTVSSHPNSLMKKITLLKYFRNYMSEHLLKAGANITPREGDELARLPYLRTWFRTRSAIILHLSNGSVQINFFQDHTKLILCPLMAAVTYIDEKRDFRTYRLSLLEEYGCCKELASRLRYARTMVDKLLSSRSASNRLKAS

[11] = target: T11, selected panels of kinases in HeLa and PC3 cell lysates (Homo sapiens, UniProt Q13523); conditions: 10 uM; PRP4; peptide […]k[…]; proteome PC3; labeling site Lys2
T11 construct: endogenous in cells; host or cells: HeLa and PC3 cell lysates
T11 sequence (Q13523 whole entry): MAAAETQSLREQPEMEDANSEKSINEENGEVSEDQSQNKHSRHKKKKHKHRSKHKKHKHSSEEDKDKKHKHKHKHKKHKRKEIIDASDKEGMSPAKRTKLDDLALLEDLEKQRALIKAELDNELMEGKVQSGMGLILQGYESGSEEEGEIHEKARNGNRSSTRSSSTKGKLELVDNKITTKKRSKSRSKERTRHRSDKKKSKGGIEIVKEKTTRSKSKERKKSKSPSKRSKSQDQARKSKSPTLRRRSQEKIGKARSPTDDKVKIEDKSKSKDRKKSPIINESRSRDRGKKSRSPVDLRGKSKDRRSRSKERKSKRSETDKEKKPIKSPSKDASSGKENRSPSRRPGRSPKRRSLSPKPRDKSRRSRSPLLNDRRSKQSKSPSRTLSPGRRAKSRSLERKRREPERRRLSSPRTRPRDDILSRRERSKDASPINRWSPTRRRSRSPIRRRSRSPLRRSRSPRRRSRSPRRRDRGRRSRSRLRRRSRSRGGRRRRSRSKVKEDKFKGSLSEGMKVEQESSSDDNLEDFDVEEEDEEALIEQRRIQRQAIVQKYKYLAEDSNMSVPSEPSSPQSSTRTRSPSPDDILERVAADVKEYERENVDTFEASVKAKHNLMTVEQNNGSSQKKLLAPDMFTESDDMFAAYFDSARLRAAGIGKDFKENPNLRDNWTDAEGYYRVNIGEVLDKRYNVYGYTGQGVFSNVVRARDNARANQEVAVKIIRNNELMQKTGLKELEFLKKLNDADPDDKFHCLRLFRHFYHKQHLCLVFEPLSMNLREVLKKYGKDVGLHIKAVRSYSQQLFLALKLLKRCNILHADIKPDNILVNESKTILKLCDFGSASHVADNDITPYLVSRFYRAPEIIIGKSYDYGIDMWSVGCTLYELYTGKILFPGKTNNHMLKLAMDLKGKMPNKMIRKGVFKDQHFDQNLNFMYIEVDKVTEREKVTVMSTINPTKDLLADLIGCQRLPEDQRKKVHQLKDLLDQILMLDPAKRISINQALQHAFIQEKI

[12] = target: T12, selected panels of kinases in HeLa and PC3 cell lysates (Homo sapiens, UniProt Q96S44); conditions: 10 uM, PRPK, peptide FLSGLELVkQGAEAR, labeling site ATP Loop
T12 construct: endogenous in cells; host or cells: HeLa and PC3 cell lysates
T12 sequence (Q96S44 1-253): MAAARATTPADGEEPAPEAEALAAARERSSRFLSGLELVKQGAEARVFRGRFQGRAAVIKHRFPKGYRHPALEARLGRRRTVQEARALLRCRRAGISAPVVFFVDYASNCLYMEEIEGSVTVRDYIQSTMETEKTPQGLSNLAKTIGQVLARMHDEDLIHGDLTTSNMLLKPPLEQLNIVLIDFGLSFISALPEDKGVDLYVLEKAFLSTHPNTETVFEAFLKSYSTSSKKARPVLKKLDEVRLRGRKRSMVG

[13] = target: T13, selected panels of kinases in HeLa and PC3 cell lysates (Homo sapiens, UniProt P19784); conditions: 10 uM; proteome PC3; peptide DVk[…]; labeling site Lys2
T13 construct: endogenous in cells; host or cells: HeLa and PC3 cell lysates
T13 sequence (P19784 whole entry): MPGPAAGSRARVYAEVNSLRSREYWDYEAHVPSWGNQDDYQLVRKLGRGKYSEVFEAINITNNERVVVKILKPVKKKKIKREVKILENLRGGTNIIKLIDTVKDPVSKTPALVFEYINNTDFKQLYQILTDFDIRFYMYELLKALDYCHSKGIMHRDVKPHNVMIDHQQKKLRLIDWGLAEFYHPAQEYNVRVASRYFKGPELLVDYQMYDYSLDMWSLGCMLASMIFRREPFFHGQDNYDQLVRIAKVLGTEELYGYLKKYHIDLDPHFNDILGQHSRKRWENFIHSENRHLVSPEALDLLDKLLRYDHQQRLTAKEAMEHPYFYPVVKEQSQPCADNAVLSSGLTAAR

[14] = target: T14, selected panels of kinases in HeLa and PC3 cell lysates (Homo sapiens, UniProt P23458); conditions: 10 uM, proteome HEL; for % Inhibiton, JAK1 domain1: peptide […]kNLLLAR, labeling site Other
T14 construct: endogenous in cells; host or cells: HeLa and PC3 cell lysates
T14 sequence (P23458 whole entry, the tested form may be a part): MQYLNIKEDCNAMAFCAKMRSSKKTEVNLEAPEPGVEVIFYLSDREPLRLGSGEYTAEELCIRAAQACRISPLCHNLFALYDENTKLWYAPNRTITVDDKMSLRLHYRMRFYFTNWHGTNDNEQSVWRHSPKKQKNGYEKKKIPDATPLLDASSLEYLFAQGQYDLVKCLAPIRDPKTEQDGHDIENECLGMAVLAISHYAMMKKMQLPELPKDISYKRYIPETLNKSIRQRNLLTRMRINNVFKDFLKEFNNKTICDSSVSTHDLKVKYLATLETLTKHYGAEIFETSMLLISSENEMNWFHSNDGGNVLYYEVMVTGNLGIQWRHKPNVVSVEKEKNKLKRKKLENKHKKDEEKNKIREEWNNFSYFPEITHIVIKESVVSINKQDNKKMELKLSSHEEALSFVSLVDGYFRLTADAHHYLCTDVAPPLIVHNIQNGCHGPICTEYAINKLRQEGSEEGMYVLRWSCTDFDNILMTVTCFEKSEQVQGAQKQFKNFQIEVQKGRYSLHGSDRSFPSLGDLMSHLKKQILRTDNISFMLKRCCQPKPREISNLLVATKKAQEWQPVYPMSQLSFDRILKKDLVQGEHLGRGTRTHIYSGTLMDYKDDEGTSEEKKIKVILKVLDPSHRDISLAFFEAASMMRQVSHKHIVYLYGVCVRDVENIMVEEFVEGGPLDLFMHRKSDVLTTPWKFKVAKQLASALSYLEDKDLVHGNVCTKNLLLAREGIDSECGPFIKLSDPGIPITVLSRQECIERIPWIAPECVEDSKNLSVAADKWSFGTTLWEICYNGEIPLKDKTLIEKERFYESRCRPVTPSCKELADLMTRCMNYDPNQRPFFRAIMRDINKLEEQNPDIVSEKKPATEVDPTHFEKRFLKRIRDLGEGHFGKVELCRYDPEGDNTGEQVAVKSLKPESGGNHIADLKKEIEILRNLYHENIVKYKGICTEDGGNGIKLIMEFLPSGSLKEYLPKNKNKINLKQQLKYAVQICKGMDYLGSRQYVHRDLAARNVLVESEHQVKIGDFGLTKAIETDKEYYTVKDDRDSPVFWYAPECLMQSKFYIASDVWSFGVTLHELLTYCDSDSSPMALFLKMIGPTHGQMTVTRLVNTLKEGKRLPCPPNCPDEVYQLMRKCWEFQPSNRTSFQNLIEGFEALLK

[15] = peptide DIkPSNILLDR, labeling site Lys2
[16] = peptide […]kR, labeling site Lys1
[17] = proteome HEL, peptide DVk[…], labeling site Lys2
[18] = proteome PC3, peptide DVk[…], labeling site Lys2
[19] = proteome PC3, peptide […]kR, labeling site Lys1
[20] = peptide IGDFGLTk[…], labeling site Activation Loop
[21] = peptide […]k[…], labeling site Lys1

| SMILES | % Inhibiton, MASTL [1] [%] | % Inhibiton, MAP2K4 [2, 15] [%] | % Inhibiton, MAP2K4 [2, 16] [%] | % Inhibiton, MARK2 [3] [%] | % Inhibiton, LYN [4] [%] | % Inhibiton, CDK7 [5] [%] | % Inhibiton, MAPKAPK3 [6] [%] | % Inhibiton, MAP2K3 ([7]; proteome HEL) [%] | % Inhibiton, MAP2K3 ([7]; proteome PC3) [%] | % Inhibiton, MAP2K6 [8, 17] [%] | % Inhibiton, MAP2K6 [8, 18] [%] | % Inhibiton, MAP2K6 [8, 19] [%] | % Inhibition PFTAIRE1 [9] [%] | % Inhibition PLK1 [10] [%] | % Inhibition PRP4 [11] [%] | % Inhibition PRPK ([12]; proteome HEL) [%] | % Inhibition PRPK ([12]; proteome PC3) [%] | % Inhibiton, CK2a2 [13] [%] | % Inhibiton, JAK1 domain2 [14, 20] [%] | % Inhibiton, JAK1 domain1 [14] [%] | further results |
| --- | --- | --- | --- | --- | --- | --- | --- | --- | --- | --- | --- | --- | --- | --- | --- | --- | --- | --- | --- | --- | --- |
| CCOc1cc(C(=O)N2CCC(N3CCN(C)CC3)CC2)ccc1Nc1ncc2c(n1)N(C1CCCC1)c1ccccc1C(=O)N2C [Compound 26] | 5.9 | -14.4 | -7.3 | 16.8 | 26.5 | 22.2 | 20.8 | 10.9 | 0.8 | -4.3 | -9.9 | -2.3 | -14.3 | 23.9 | 5.5 | 9.6 | -5.6 | 8 | 6.3 | 24.2 | % Inhibiton, JAK1 domain2 [14, 21]: 32.1% |
| COc1cc(C(=O)N2CCC(N3CCN(C)CC3)CC2)ccc1Nc1ncc2c(n1)N(C1CCCC1)c1ccccc1C(=O)N2C [Compound 25, 11-cyclopentyl-2-((2-methoxy-4-(4-(4-methylpiperazin-1-yl)piperidine-1-carbonyl)phenyl)amino)-5-methyl-5H-benzo[e]pyrimido[5,4-b][1,4]diazepin-6(11H)-one] | 14.5 | -7.6 | -9.0 | 1.3 | -2.9 | 67.9 | 1.8 | 11.8 | -7.0 | 14.2 | -3.9 | 12.8 | -9.7 | 9.6 | -11.9 | -8.1 | -11.3 | -14.2 | 5.1 | 3.2 | % Inhibiton, JAK1 domain2 [14, 21]: 4.8% |
